Laboratory results: PubChem BioAssay (NCI)
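Five compound concentrations were applied to cells in 96-well plates for 48 hours; endpoints were derived by simple linear interpolation of the resulting dose-response curve. GI50 is the concentration that inhibits growth by half. TGI: total growth inhibition.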

Assays:
Experiment in all cases: NCI-60 cell line screen, 48 h
CCRF-CEM leukemia = test system: CCRF-CEM leukemia
NCI/ADR-RES ovarian = test system: NCI/ADR-RES ovarian
MALME-3M melanoma = test system: MALME-3M melanoma
SF-268 CNS = test system: SF-268 CNS
ACHN renal = test system: ACHN renal
MOLT-4 leukemia = test system: MOLT-4 leukemia
HS 578T breast = test system: HS 578T breast
SK-MEL-5 melanoma = test system: SK-MEL-5 melanoma
NCI-H522 lung = test system: NCI-H522 lung
SK-MEL-2 melanoma = test system: SK-MEL-2 melanoma
PC-3 prostate = test system: PC-3 prostate
CAKI-1 renal = test system: CAKI-1 renal
SK-OV-3 ovarian = test system: SK-OV-3 ovarian
NCI-H226 lung = test system: NCI-H226 lung
SF-539 CNS = test system: SF-539 CNS
SN12C renal = test system: SN12C renal
HCT-15 colon = test system: HCT-15 colon
UACC-257 melanoma = test system: UACC-257 melanoma
SNB-75 CNS = test system: SNB-75 CNS
KM12 colon = test system: KM12 colon
SR leukemia = test system: SR leukemia
OVCAR-8 ovarian = test system: OVCAR-8 ovarian
UO-31 renal = test system: UO-31 renal
HCT-116 colon = test system: HCT-116 colon
A549 NSCLC = test system: A549 NSCLC
TK-10 renal = test system: TK-10 renal
SNB-19 CNS = test system: SNB-19 CNS
T-47D breast = test system: T-47D breast
M14 melanoma = test system: M14 melanoma
BT-549 breast = test system: BT-549 breast
U251 CNS = test system: U251 CNS
NCI-H23 lung = test system: NCI-H23 lung
OVCAR-4 ovarian = test system: OVCAR-4 ovarian
MCF7 breast = test system: MCF7 breast
OVCAR-5 ovarian = test system: OVCAR-5 ovarian
A498 renal = test system: A498 renal
EKVX NSCLC = test system: EKVX NSCLC
HT29 colon = test system: HT29 colon
K-562 leukemia = test system: K-562 leukemia
COLO 205 colon = test system: COLO 205 colon
MDA-MB-435 = test system: MDA-MB-435
RPMI-8226 leukemia = test system: RPMI-8226 leukemia
SK-MEL-28 melanoma = test system: SK-MEL-28 melanoma
UACC-62 melanoma = test system: UACC-62 melanoma
HOP-62 NSCLC = test system: HOP-62 NSCLC
786-0 renal = test system: 786-0 renal
IGROV1 ovarian = test system: IGROV1 ovarian
DU-145 prostate = test system: DU-145 prostate
LOX IMVI melanoma = test system: LOX IMVI melanoma
SF-295 CNS = test system: SF-295 CNS
HL-60(TB) leukemia = test system: HL-60(TB) leukemia
MDA-MB-231 breast = test system: MDA-MB-231 breast
NCI-H460 lung = test system: NCI-H460 lung
OVCAR-3 ovarian = test system: OVCAR-3 ovarian

Compound: CC(=O)/C(C)=N/N/C(N)=N\S(=O)(=O)c1cc(C(=O)Nc2ccccc2)c(Cl)cc1SCc1ccccc1
- GI50 (CCRF-CEM leukemia): 98.5 µM
- TGI (CCRF-CEM leukemia): > 100 µM
- GI50 (NCI/ADR-RES ovarian): > 100 µM
- TGI (NCI/ADR-RES ovarian): > 100 µM
- GI50 (MALME-3M melanoma): > 100 µM
- TGI (MALME-3M melanoma): > 100 µM
- GI50 (SF-268 CNS): 40.4 µM
- TGI (SF-268 CNS): > 100 µM
- GI50 (ACHN renal): 7.89 µM
- TGI (ACHN renal): > 100 µM
- GI50 (MOLT-4 leukemia): 3.73 µM
- TGI (MOLT-4 leukemia): 56.3 µM
- GI50 (HS 578T breast): > 100 µM
- TGI (HS 578T breast): > 100 µM
- GI50 (SK-MEL-5 melanoma): 24 µM
- TGI (SK-MEL-5 melanoma): > 100 µM
- GI50 (NCI-H522 lung): 64.7 µM
- TGI (NCI-H522 lung): > 100 µM
- GI50 (SK-MEL-2 melanoma): 43.5 µM
- TGI (SK-MEL-2 melanoma): > 100 µM
- GI50 (PC-3 prostate): > 100 µM
- TGI (PC-3 prostate): > 100 µM
- GI50 (CAKI-1 renal): > 100 µM
- TGI (CAKI-1 renal): > 100 µM
- GI50 (SK-OV-3 ovarian): > 100 µM
- TGI (SK-OV-3 ovarian): > 100 µM
- GI50 (NCI-H226 lung): 66.7 µM
- TGI (NCI-H226 lung): > 100 µM
- GI50 (SF-539 CNS): 2.79 µM
- TGI (SF-539 CNS): 8.05 µM
- GI50 (SN12C renal): 28.2 µM
- TGI (SN12C renal): > 100 µM
- GI50 (HCT-15 colon): > 100 µM
- TGI (HCT-15 colon): > 100 µM
- GI50 (UACC-257 melanoma): 34.8 µM
- TGI (UACC-257 melanoma): > 100 µM
- GI50 (SNB-75 CNS): > 100 µM
- TGI (SNB-75 CNS): > 100 µM
- GI50 (KM12 colon): 60.2 µM
- TGI (KM12 colon): > 100 µM
- GI50 (SR leukemia): 6.2 µM
- TGI (SR leukemia): > 100 µM
- GI50 (OVCAR-8 ovarian): 8.6 µM
- TGI (OVCAR-8 ovarian): > 100 µM
- GI50 (UO-31 renal): 29.6 µM
- TGI (UO-31 renal): > 100 µM
- GI50 (HCT-116 colon): 0.337 µM
- TGI (HCT-116 colon): > 100 µM
- GI50 (A549 NSCLC): 30.5 µM
- TGI (A549 NSCLC): > 100 µM
- GI50 (TK-10 renal): 62.4 µM
- TGI (TK-10 renal): > 100 µM
- GI50 (SNB-19 CNS): > 100 µM
- TGI (SNB-19 CNS): > 100 µM
- GI50 (T-47D breast): > 100 µM
- TGI (T-47D breast): > 100 µM
- GI50 (M14 melanoma): 1.08 µM
- TGI (M14 melanoma): 3.95 µM
- GI50 (BT-549 breast): 23.8 µM
- TGI (BT-549 breast): > 100 µM
- GI50 (U251 CNS): 27.7 µM
- TGI (U251 CNS): > 100 µM
- GI50 (NCI-H23 lung): 42.8 µM
- TGI (NCI-H23 lung): > 100 µM
- GI50 (OVCAR-4 ovarian): 12.3 µM
- TGI (OVCAR-4 ovarian): > 100 µM
- GI50 (MCF7 breast): 76.7 µM
- TGI (MCF7 breast): > 100 µM
- GI50 (OVCAR-5 ovarian): > 100 µM
- TGI (OVCAR-5 ovarian): > 100 µM
- GI50 (A498 renal): 55.9 µM
- TGI (A498 renal): > 100 µM
- GI50 (EKVX NSCLC): 6.62 µM
- TGI (EKVX NSCLC): 39.5 µM
- GI50 (HT29 colon): 61.6 µM
- TGI (HT29 colon): > 100 µM
- GI50 (K-562 leukemia): 5.54 µM
- TGI (K-562 leukemia): > 100 µM
- GI50 (COLO 205 colon): > 100 µM
- TGI (COLO 205 colon): > 100 µM
- GI50 (MDA-MB-435): 34.4 µM
- TGI (MDA-MB-435): > 100 µM
- GI50 (RPMI-8226 leukemia): 7.01 µM
- TGI (RPMI-8226 leukemia): > 100 µM
- GI50 (SK-MEL-28 melanoma): > 100 µM
- TGI (SK-MEL-28 melanoma): > 100 µM
- GI50 (UACC-62 melanoma): 16.4 µM
- TGI (UACC-62 melanoma): > 100 µM
- GI50 (HOP-62 NSCLC): 0.0554 µM
- TGI (HOP-62 NSCLC): 0.385 µM
- GI50 (786-0 renal): 0.766 µM
- TGI (786-0 renal): > 100 µM
- GI50 (IGROV1 ovarian): 29.9 µM
- TGI (IGROV1 ovarian): > 100 µM
- GI50 (DU-145 prostate): 3.5 µM
- TGI (DU-145 prostate): > 100 µM
- GI50 (LOX IMVI melanoma): 4.83 µM
- TGI (LOX IMVI melanoma): > 100 µM
- GI50 (SF-295 CNS): 43.1 µM
- TGI (SF-295 CNS): > 100 µM
- GI50 (HL-60(TB) leukemia): 2.36 µM
- TGI (HL-60(TB) leukemia): 24.2 µM
- GI50 (MDA-MB-231 breast): 5.94 µM
- TGI (MDA-MB-231 breast): > 100 µM
- GI50 (NCI-H460 lung): 18 µM
- TGI (NCI-H460 lung): 79.3 µM
- GI50 (OVCAR-3 ovarian): > 100 µM
- TGI (OVCAR-3 ovarian): > 100 µM
